Laboratory results reported in patent US12492215B2, “Pyrrolotriazine compounds acting as MNK inhibitor” (JUMBO DRUG BANK CO., LTD., priority 2019, dated 2025).
pIC50: −log10 of the molar value. Where a name gives a salt, the structure may show the parent alone.

Legend:
[1] = biological target: MNK2 (h) protein kinase (Homo sapiens (Human), UniProt Q9HBH9); experiment: Inhibitory activity against MNK2 protein kinase (KinaseProfiler, 33P-ATP filter-binding); assay type: biochemical; details: myelin basic protein substrate, 40 min room temperature
MNK2 (h) protein kinase, sequence (Q9HBH9 whole entry): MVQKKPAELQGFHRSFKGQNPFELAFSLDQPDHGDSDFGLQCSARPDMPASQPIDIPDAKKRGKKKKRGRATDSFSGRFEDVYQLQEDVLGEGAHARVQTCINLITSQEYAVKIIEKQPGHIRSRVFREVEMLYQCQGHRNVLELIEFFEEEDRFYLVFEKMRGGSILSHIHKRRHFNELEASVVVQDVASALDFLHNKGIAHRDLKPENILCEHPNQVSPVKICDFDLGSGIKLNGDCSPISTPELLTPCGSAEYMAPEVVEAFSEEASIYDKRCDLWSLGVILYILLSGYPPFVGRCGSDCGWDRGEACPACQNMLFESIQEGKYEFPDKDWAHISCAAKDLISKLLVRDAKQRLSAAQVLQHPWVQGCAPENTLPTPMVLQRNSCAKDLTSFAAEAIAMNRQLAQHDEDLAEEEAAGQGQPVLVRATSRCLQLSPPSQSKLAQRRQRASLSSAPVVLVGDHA
Protocol: 1. In Vitro Evaluation of Inhibitory Activity of Compounds Disclosed Herein Against MNK2 Protein Kinase
Purpose of experiment: to test the inhibitory activity of the compounds against MNK2 protein kinase
Experimental materials: assay buffer: 8 mM 3-(N-morpholino)propanesulfonic acid, 0.2 mM disodium ethylenediaminetetraacetate, 0.01% polyoxyethylene lauryl ether, 5% glycerol, 0.1% β-mercaptoethanol and 1 mg of bovine serum albumin
Experimental operation: Mnk2 protein kinase inhibitory activity assays were performed using the KinaseProfiler™ service from Eurofins Pharma Discovery Services UK Limited. Serially diluted DMSO solutions containing the compounds to be tested (3-fold serial dilution, starting from 10 μM), MNK2 (h) protein kinase and 0.33 mg/mL myelin basic protein were added to a freshly prepared buffer (pH 7.0), and then stirred homogeneously. The reaction was initiated by adding a mixture of ^33P-ATP (intensity of radioactivity: 10 μCi/μL) and 10 mM magnesium acetate. After the resulting mixture was reacted at room temperature for 40 min, the reaction was terminated by adding phosphoric acid to dilute to a concentration of 0.5%. 10 μL of the reaction solution was filtered using a P30 filtermat, and then the filtermat was washed four times with 0.425% phosphoric acid for 4 min each, followed by washing once with methanol. After drying, the intensity of radioactivity was determined using the Filter-Binding method.
The protein kinase inhibitory activity of the compounds was expressed as a percentage of the residual protein kinase activity relative to the blank substrate (DMSO alone). The Prism4 software package (GraphPad) was used to calculate IC50 values and fit curves.

[2] = biological target: MNK1 (h) protein kinase (Homo sapiens (Human), UniProt Q9BUB5); experiment: Inhibitory activity against MNK1 protein kinase (Kinase HotSpot Profiling, 33P-ATP); assay type: biochemical; details: 120 min room temperature
MNK1 (h) protein kinase, sequence (Q9BUB5 whole entry): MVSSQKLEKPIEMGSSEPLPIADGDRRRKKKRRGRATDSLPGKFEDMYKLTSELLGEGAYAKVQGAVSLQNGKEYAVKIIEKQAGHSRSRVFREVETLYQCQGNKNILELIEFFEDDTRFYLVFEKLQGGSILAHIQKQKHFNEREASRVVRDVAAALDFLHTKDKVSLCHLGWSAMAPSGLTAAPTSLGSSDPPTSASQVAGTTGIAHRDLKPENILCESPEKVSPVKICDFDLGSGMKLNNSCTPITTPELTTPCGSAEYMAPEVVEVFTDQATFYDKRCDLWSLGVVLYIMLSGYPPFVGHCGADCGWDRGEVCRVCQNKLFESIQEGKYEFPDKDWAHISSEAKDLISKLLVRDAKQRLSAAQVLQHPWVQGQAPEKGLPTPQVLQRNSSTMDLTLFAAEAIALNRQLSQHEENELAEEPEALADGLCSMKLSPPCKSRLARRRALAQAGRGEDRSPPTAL
Protocol: 2. In Vitro Evaluation of Inhibitory Activity of Compound Disclosed Herein Against MNK1 Protein Kinase
Purpose of experiment: to test the inhibitory activity of the compound against MNK1 protein kinase
Experimental materials: assay buffer: 20 mM 4-hydroxyethylpiperazine ethanesulfonic acid (pH 7.5), 10 mM magnesium chloride, 1 mM ethylene glycol-bis-(2-aminoethylether)-N,N,N′,N′-tetraacetic acid, 0.02% polyoxyethylene lauryl ether, 0.02 mg/mL bovine serum albumin, 0.1 mM sodium vanadate, 2 mM dithiothreitol, and 1% DMSO.
Experimental operation: Mnk1 protein kinase inhibitory activity assays were performed using the Kinase HotSpot Profiling service from Reaction Biology Corp. The substrate was added to a freshly prepared buffer, followed by addition of MNK1 (h). The mixture was stirred homogeneously. Serially diluted DMSO solution containing the compounds to be tested (3-fold serial dilution, starting from 3 μM) was added by using Echo550, and then ^33P-ATP (final intensity of radioactivity: 0.01 μCi/μl) was added to initiate the reaction. The mixture was pre-incubated at room temperature for 120 min. […] The concentration of the radioactive phosphorylated substrate remaining on the filter paper was measured.
The protein kinase inhibitory activity of the compound was expressed as a percentage of the residual protein kinase activity relative to the blank substrate (DMSO alone). […]

[3] = tested on: eIF4E phosphorylation of HCT116 cell strain; experiment: Inhibition of eIF4E phosphorylation in HCT116 cell strain (AlphaLISA p-eIF4E Ser209); assay type: cell-based; details: Homo sapiens, HCT-116; HCT116 cells, 3 h incubation
From the text: 3. In Vitro Evaluation of Inhibitory Activity of Compounds Disclosed Herein Against eIF4E Phosphorylation Purpose of experiment: to test the inhibition (IC50) of the compounds against eIF4E phosphorylation of HCT116 cell strain. Experimental materials: HCT116 cells (ATCC), RPM11640 medium (Life technology), fetal bovine serum (Hyclone), double antibodies (penicillin, streptomycin) (Millipore), phosphate buffer (Corning), 384-well cell plate (PerkinElmer), and AlphaLISA® SureFire® Ultra™ p-eIF4E (Ser209) Assay Kit (PerkinElmer). Experimental operation: HCT116 cells were digested to make a cell suspension, which was then plated in a 96-well plate. The cell plate was then placed in an incubator for overnight incubation. Compounds were diluted to corresponding concentrations and added to the cell plate, and the resulting mixture was incubated for 3 h. The cells were subsequently lysed with a lysis buffer, and the lysate was transferred to a 384-well plate. A mixed receptor was freshly prepared according to the kit instructions and added to the 384-well plate, and the mixture was incubated at room temperature for 1 h. Then a mixed donor was freshly prepared according to the kit instructions and added to the 384-well plate, and the resulting mixture was incubated at room temperature for 1 h. The signals were read on EnVision using the standard AlphaLISA program, curves were fitted using Graphpad prism, and the IC50 values were calculated.

[4] = Pharmacokinetic evaluation in mice; assay type: in vivo, CD-1 mice; details: male, CD-1, mouse, plasma; for bioavailability: PO 2 mg/kg vs IV 0.5 mg/kg, read-out: Bioavailability F; for AUC(0-t) / half-life: PO 2 mg/kg; for AUC(0-t): read-out: Area under the plasma drug concentration-time curve AUC0-last PO; for Cmax: intragastric 2 mg/kg, intravenous 0.5 mg/kg (route of Cmax not given), read-out: Peak concentration Cmax; for clearance / Vd: intravenous injection 0.5 mg/kg; for clearance: read-out: Clearance CL; for Vd: read-out: Tissue distribution Vdss; for half-life: read-out: Half-life T1/2 (PO) (converted)
Protocol: 4. Pharmacokinetic Evaluation of Compounds Disclosed Herein
Purpose of experiment: to test pharmacokinetic parameters of the compounds in CD-1 mice
Experimental materials: CD-1 mice (Male, 7-9 weeks age, Shanghai Sippe-Bk Lab Animal Co., Ltd.)
Experimental operation: pharmacokinetic characteristics of the compounds after intravenous injection and oral administration for the rodent were tested by a standard scheme, and the candidate compounds were each formulated into a clear solution or a uniform suspension in the experiments and intravenously administered and intragastrically administered once to a mouse. The vehicle for the intravenous injection and oral administration was […] hydroxypropyl-β-cyclodextrin aqueous solution or normal saline solution. […] Two mice were subjected to intravenous injection at a dose of 0.5 mg/kg, and plasma samples were collected at 0 h (before administration) and 0.083, 0.25, 0.5, 1, 2, 4, 8, 12 and 24 h (after administration); the other two mice were subjected to intragastric administration at a dose of 2 mg/kg, and plasma samples were collected at 0 h (before administration) and 0.25, 0.5, 1, 2, 4, 8, 12 and 24 h (after administration). Whole blood samples within 24 h were collected and each centrifuged at 3000 g for 10 min. The supernatant was separated to obtain plasma sample, and acetonitrile solution containing internal standard whose volume is […] that of the plasma sample was added to precipitate the protein. The mixture was vortexed at 800 rpm for 10 min, and then 1 μL of supernatant was taken for injection. Plasma concentrations were quantitatively analyzed by LC-MS/MS method, and pharmacokinetic parameters, such as peak concentration (Cmax), clearance (CL), half-life (T1/2), tissue distribution (Vdss), area under the plasma drug concentration-time curve (AUC0-last) and bioavailability (F), were calculated.

[5] = tested on: CT-26 mouse colon cancer graft tumor; experiment: In vivo efficacy in CT-26 mouse graft tumor; design: species or system mice; details: QD, 21-day treatment, CT-26 graft tumor
Protocol: 5. In Vivo Efficacy Experiment of Compound Disclosed Herein for CT-26 Mouse Graft Tumor
Purpose of experiment: to determine in vivo efficacy of compound for CT-26 mouse graft tumor
Experimental materials: CT-26 cells, RMPI-1640 medium containing 10% fetal bovine serum, and mice (female, Shanghai Sippe-Bk Lab Animal Co., Ltd.)
Experimental operation: CT-26 cells were cultured in RMPI-1640 medium containing 10% fetal bovine serum in an incubator at 37° C./5% CO2. Tumor cells were subcultured, and after an appropriate concentration was reached and the tumor cells were in the logarithmic growth phase, the tumor cells were collected, counted and then resuspended in DPBS (phosphate buffered solution), and the concentration of the cell suspension was adjusted to 3×10^6/mL for inoculation.
Establishment of mouse colon cancer graft tumor: cells were collected and adjusted to a concentration of 3×10^6 cells/mL (resuspended in DPBS to obtain cell suspension), and 0.1 mL of tumor cells was injected subcutaneously at the right dorsal side of the mice under sterile conditions, and 3×10^5 cells were inoculated for each mouse. After the tumor grew to a certain size, the length (a) and the width (b) of the tumor was measured by using a digital vernier caliper, and the tumor volume (TV) was calculated, wherein the calculation formula is as follows: TV=a×b^2/2.
CT-26 tumor cell inoculation: on the day of inoculation, animals were grouped (8 animals for each) according to the body weight and subjected to drug administration separately, and the day of inoculation was considered as D0. When the tumor size reached about 60 mm^3, the animals in the antibody groups were grouped according to the tumor size and the body weight. The body weight and tumor size of the animals were measured three times a week during the experiment, while clinical symptoms of the animals were observed and recorded daily, and for each administration, reference was made to the animal body weight measured most recently. The inhibitory effect of the compound on colon cancer graft tumor in mice was determined after 21-day treatment at a dose of 30 mg/Kg QD (once daily), 90 mg/Kg QD (once daily) and 200 mg/Kg QD (once daily), and the specific information is shown in Table 5 below.
The calculation formula of T/C (%) is as follows: T/C (%)=(TRTV/CRTV)×100%. TRTV is the relative tumor volume of the treatment group, and CRTV is the relative tumor volume of the negative control group; TGI (%)^a=(1−average tumor volume at the end of administration of a treatment group/average tumor volume at the end of treatment of the vehicle control group)×100%.

[6] = tested on: expression of PD-1, LAG3 and IL-10; details: background statement; cited from earlier work
[7] = background statement; cited from earlier work

IC50 [1] [nM] | pIC50 [3] | SMILES | other results
22 | 8.46 | Cc1cc(Nc2ncnn3cc(OCCN4CCCC4)c(C)c23)c(=O)n2c1C(=O)NC21CCCCC1 [Compound 1 (hydrochloride)] | IC50 [2]: 54.6 nM; bioavailability [4]: 32.5%; AUC(0-t) [4]: 0.956 µM·h; Cmax [4]: 35.9 nM; clearance [4]: 33.3 mL/min/kg; Vd [4]: 14.1 L/kg
63 | – | Cc1cc(Nc2ncnn3cc(OCCN4CCCC4)c(C)c23)c(=O)n2c1C(=O)NC21CCNCC1 [Compound 2 (hydrochloride)] | –
39 | – | Cc1cc(Nc2ncnn3cc(OCCN4CCCC4)c(C)c23)c(=O)n2c1C(=O)NC21CCN(C)CC1 [Compound 3 (hydrochloride)] | –
25 | 7.85 | Cc1c(OCCN2CCCC2)cn2ncnc(Nc3ccc4n(c3=O)C3(CCCCC3)NC4=O)c12 [Compound 4 (hydrochloride)] | –
26 | 8.02 | Cc1c(OCCN2CCCC2)cn2ncnc(Nc3cc(F)c4n(c3=O)C3(CCCCC3)NC4=O)c12 [Compound 5 (hydrochloride)] | –
21 | 9.18 | Cc1c(OCCN2CCCC2)cn2ncnc(Nc3cc(Cl)c4n(c3=O)C3(CCCCC3)NC4=O)c12 [Compound 6 (hydrochloride)] | –
17 | 8.19 | Cc1cc(Nc2ncnn3cc(OCCN4CCCC4)c(C)c23)c(=O)n2c1C(=O)NC21CCCC1 [Compound 7 (hydrochloride)] | AUC(0-t) [4]: 1.39 µM·h; half-life [4]: 3.2 h; Cmax [4]: 131 nM
33 | 7.62 | Cc1cc(Nc2ncnn3cc(OCCN4CCCC4)c(C)c23)c(=O)n2c1C(=O)NC2(C)C [Compound 8 (hydrochloride)] | –
30 | 7.92 | Cc1cc(Nc2ncnn3cc(OCCN4CCCC4)c(C)c23)c(=O)n2c1C(=O)NC21CCC(F)(F)CC1 [Compound 9 (hydrochloride)] | –
8 | 8.51 | Cc1c(OCCN2CCCC2)cn2ncnc(Nc3cc(Cl)c4n(c3=O)C3(CCCC3)NC4=O)c12 [Compound 10 (hydrochloride)] | –
28 | 7.72 | Cc1cc(Nc2ncnn3cc(OCCN4CCC(F)(F)C4)c(C)c23)c(=O)n2c1C(=O)NC21CCCCC1 [Compound 11] | bioavailability [4]: 14.2%; AUC(0-t) [4]: 0.405 µM·h; half-life [4]: 12.1 h; Cmax [4]: 104 nM; clearance [4]: 21.8 mL/min/kg; Vd [4]: 2.53 L/kg
– | 8.07 | Cc1cc(Nc2ncnn3cc(OCCN4CCC(F)(F)C4)c(C)c23)c(=O)n2c1C(=O)NC21CCCC1 [Compound 12] | T/C % ([5]; 30 mg/Kg): 36.43%; TGI % ([5]; 30 mg/Kg): 63.57%; T/C % ([5]; 90 mg/Kg): 31.11%; TGI % ([5]; 90 mg/Kg): 68.89%; T/C % ([5]; 200 mg/Kg): 33.31%; TGI % ([5]; 200 mg/Kg): 68.51%
14 | 7.98 | Cc1cc(Nc2ncnn3cc(OC[C@H](C)N4CCCC4)c(C)c23)c(=O)n2c1C(=O)NC21CCCC1 [Compound 13] | –
28 | – | Cc1cc(Nc2ncnn3cc(OCC4CCNC4)c(C)c23)c(=O)n2c1C(=O)NC21CCCCC1 (stereo not shown) [Compound 15 (hydrochloride)] | –
27 | 8.55 | Cc1cc(Nc2ncnn3cc(OCC4CCN(C)C4)c(C)c23)c(=O)n2c1C(=O)NC21CCCCC1 (stereo not shown) [Compound 16 (hydrochloride)] | –
– | – | Cc1cc(Nc2cc(N)ncn2)c(=O)n2c1C(=O)NC21CCCCC1 [eFT508] | effect on expression of PD-1, LAG3 and IL-10 [6]: selectively inhibit the expression of PD-1, LAG3 and IL-10; safety in phase I clinical trial [7]: good safety
